Measurements published in patent US20260125440A1, “INCRETIN ANALOGS AND USES THEREOF” (ELI LILLY AND COMPANY, priority 2019, published 2026).
Where “and” joins values, the source holds several entries; their conditions need not be identical. Equal entries are not always repeated. Where two headings read alike, the source gives them in different places. Marks after values point to notes of the source that are not given here.

Experiments:
hGLP-1R = target: T1, hGLP-1R (Homo sapiens, UniProt P43220); assay: Functional cAMP assay in HEK-293 cells expressing hGLP-1R; type: cell-based; details: percent of maximal response to GLP-1(7-36)NH2, read-out: hGLP-1R Emax
T1 construct: expressed in transfected cells; host or cells: HEK-293 clonal cell line
T1 sequence (P43220 24-463): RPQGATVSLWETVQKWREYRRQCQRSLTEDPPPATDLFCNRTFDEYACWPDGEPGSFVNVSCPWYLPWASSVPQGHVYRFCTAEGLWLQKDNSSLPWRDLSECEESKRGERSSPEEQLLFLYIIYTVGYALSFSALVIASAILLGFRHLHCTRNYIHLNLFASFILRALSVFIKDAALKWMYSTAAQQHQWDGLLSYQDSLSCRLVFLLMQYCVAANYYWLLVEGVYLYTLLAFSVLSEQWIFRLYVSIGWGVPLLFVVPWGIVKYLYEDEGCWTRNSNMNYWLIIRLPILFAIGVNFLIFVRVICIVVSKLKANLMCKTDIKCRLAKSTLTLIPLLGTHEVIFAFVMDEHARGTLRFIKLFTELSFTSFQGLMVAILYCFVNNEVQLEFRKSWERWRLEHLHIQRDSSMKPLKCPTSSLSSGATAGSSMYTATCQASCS
Protocol: (§1) Experiments also are performed under identical assay conditions with the addition of 1.0% fatty acid free, globulin free human serum albumin (Sigma Cat #A3782).
(§2) After a 30-min incubation at 37° C., the resulting increase in intracellular cAMP is quantitatively determined using a CisBio cAMP Dynamic 2 HTRF Assay Kit (62AM4PEJ). Briefly, cAMP levels within the cell are detected by adding the cAMP-d2 conjugate in cell lysis buffer (10 μL) followed by the antibody anti-cAMP-Eu^3+-Cryptate, also in cell lysis buffer (10 μL). The resulting competitive assay is incubated for at least 60 min at room temperature, and then is detected using a PerkinElmer Envision® instrument with excitation at 320 nm and emission at 665 nm and 620 nm. Envision units (emission at 665 nm/620 nm*10,000) are inversely proportional to the amount of cAMP present and are converted to nM cAMP per well using a cAMP standard curve. […] A relative EC50 value and percent top (Emax) are derived by non-linear regression analysis using the percent maximal response vs. the concentration of peptide added, fitted to a four-parameter logistic equation.

hGCGR = target: T2, hGCGR (Homo sapiens, UniProt P47871, DEL55-55); assay: Functional cAMP assay in HEK-293 cells expressing hGCGR; type: cell-based; details: percent of maximal response to GCG
T2 construct: expressed in transfected cells; host or cells: HEK-293 clonal cell line
T2 sequence (P47871 with tags, fused parts or gaps DEL55-55): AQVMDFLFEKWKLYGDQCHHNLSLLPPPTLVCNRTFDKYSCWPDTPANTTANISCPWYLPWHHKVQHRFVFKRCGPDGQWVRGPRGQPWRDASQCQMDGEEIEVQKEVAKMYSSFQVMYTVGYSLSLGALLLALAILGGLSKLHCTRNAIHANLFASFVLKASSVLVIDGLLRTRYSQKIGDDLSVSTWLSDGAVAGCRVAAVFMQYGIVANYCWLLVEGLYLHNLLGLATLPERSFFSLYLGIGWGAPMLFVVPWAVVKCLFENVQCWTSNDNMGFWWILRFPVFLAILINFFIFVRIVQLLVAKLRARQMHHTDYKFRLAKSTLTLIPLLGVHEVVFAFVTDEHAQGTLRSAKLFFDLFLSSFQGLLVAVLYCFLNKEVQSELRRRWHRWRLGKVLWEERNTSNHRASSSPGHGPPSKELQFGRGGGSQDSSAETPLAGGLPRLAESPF
Protocol: as §1, §2

hGIPR = target: T3, hGIPR (Homo sapiens, UniProt P48546); assay: Functional cAMP assay in HEK-293 cells expressing hGIPR; type: cell-based; details: percent of maximal response to GIP(1-42)NH2, read-out: hGIPR Emax
T3 construct: expressed in transfected cells; host or cells: HEK-293 clonal cell line
T3 sequence (P48546 22-466): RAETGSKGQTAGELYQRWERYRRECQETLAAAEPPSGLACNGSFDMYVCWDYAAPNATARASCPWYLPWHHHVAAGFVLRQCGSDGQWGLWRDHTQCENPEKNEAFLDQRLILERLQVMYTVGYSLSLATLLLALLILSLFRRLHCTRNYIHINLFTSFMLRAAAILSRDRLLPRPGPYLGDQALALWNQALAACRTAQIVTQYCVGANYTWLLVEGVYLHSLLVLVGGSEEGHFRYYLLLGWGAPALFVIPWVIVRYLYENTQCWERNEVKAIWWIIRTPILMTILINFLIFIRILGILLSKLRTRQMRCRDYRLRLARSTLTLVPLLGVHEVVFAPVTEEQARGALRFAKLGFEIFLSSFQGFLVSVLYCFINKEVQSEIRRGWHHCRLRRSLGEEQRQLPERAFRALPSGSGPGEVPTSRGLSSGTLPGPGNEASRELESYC
Protocol: as §1, §2

[1] = Pharmacokinetics in male diet-induced obese (DIO) mice; type: in vivo; details: mouse, subcutaneous, single 200 nmol/kg SQ dose, plasma
Protocol: Methods: Male DIO mice are administered a single SQ dose of 200 nmol/kg (0.98 mg/kg) of Example compounds in 40 mM Tris-HCL pH8 buffer with 0.02% PS80 at a volume of 10 mL/kg. […] Plasma concentration of Example compounds are determined by a qualified Liquid Chromatography Mass Spectrometry (LC/MS) method at Q Squared Solutions BioSciences LLC (Ithaca, NY). The Example compounds and an internal standard are extracted from 100% mouse plasma using protein precipitation followed by solid phase extraction. The intact mass of the Example compounds, which includes peptide plus acyl chain, are detected by a Q-Exactive™ Orbitrap® mass spectrometer.

[2] = Insulin secretion during ivGTT in male Wistar rats; type: in vivo; details: Sema: semaglutide 10 nmol/kg positive control, one per run of each Example compound
Protocol: Methods: An intravenous glucose tolerance test (ivGTT) in Male Wistar rats is used to estimate insulinotropic potency of the Example compounds. A GLP-1R agonist, semaglutide, is used as a positive control. […] Semaglutide is used as positive control in connection with each run of Example compounds ([…] dose).
A time 0 blood sample is collected into EDTA tubes after which glucose is administered ([…], 5 mL/kg). Blood samples are collected for glucose and insulin levels at time 2, 4, 6, 10, 20 and 30 min post intravenous administration of glucose. Plasma insulin is determined using an electrochemiluminescence assay (Meso Scale; Rockville, MD).
Statistical analysis is performed using JMP with a one-way ANOVA followed by Dunnett's comparison to the vehicle control.

[3] = Weight loss, metabolism and body composition in DIO C57/B16 mice; type: in vivo
Protocol: Methods: To investigate the effects of the Example compounds on parameters such as weight loss, metabolism and body composition, the Example compounds are dosed to C57B16 DIO mice. These animals, although not diabetic, display insulin resistance and dyslipidemia, all characteristics of metabolic syndrome, after being placed on a high fat diet for 20 weeks.
Here, DIO male C57/B16 mice at 20 weeks old are maintained on a calorie-rich diet are used in the following studies. […] After a 3-week acclimation to the facility, which includes 1 week of vehicle acclimation dosing, the mice are randomized according to their body weight, so each experimental group of animals would have similar body weight.
All groups contain 6 mice. […] Body weight and food intake are measured daily throughout the study, including 1 day after last dose (Day 15).
Absolute changes in body weight are calculated by subtracting the body weight of the same animal prior to the first injection of molecule. On Days 0 and 15, total fat mass is measured by nuclear magnetic resonance (NMR) using an Echo Medical System (Houston, TX) instrument. On Day 15, metabolic parameters are measured using Accu-Chek® Aviva® Glucometers (Roche; Indianapolis, IN) or a Hitachi clinical blood analyzer (Roche, Indianapolis, IN). Plasma insulin is determined using an electrochemiluminescence assay (Meso Scale Discovery, Rockville, MD).
Data are presented as mean±t SEM of 6animals per group in Tables 7 and 8 below. Statistical analysis is performed using repeated measures ANOVA, followed by Dunneti's method for multiple comparisons. Significant differences are identified as * with p<0.05.

[4] = HEK293, 0.1% bovine casein and 1.0% human serum albumin
[5] = 10 nmol/kg SQ daily, day 15 difference vs vehicle, DIO mice

Molecule | Emax (hGLP-1R; [4]) [%] | Emax (hGLP-1R; HEK293, 0.1% bovine casein) [%] | Emax (hGCGR; [4]) [%] | Emax (hGCGR; HEK293, 0.1% bovine casein) [%] | Emax (hGIPR; [4]) [%] | Emax (hGIPR; HEK293, 0.1% bovine casein) [%] | AUC(0-inf) [1] [µM·h] | CL/F [1] [mL/min/kg] | Cmax [1] [nM] | Tmax [1] [h] | half-life ([1]; read-out: t½ (converted)) [h] | AUC30 min of Insulin After Bolus IV Glucose [2] | Δ Body Weight (g) ([3]; 10 nmol/kg SQ daily 14 days, day 15, difference vs vehicle, DIO mice) | Δ Cholesterol [3, 5] | Δ Glucose [3, 5] [mg/dL] | Δ Insulin [3, 5] [ng/mL] | Δ Trigs [3, 5] [mg/dL] | Fat Mass (%) ([3]; 10 nmol/kg SQ daily, difference in fat mass between days 0 and 15 (NMR), DIO mice) | Δ Body Weight (%) ([3]; 10 nmol/kg SQ daily, percent decrease between days 1 and 15, DIO mice)
CC[C@H](C)[C@H](NC(=O)[C@H](Cc1ccccc1)NC(=O)C(C)(C)NC(=O)[C@](C)(CC(C)C)NC(=O)[C@H](CCC(N)=O)NC(=O)[C@H](C)NC(=O)[C@H](CCCCNC(=O)COCCOCCNC(=O)CC[C@H](NC(=O)CCCCCCCCCCCCCCCCCCC(=O)O)C(=O)O)NC(=O)[C@H](CCCN)NC(=O)[C@H](CC(=O)O)NC(=O)[C@H](CC(C)C)NC(=O)[C@](C)(CC(C)C)NC(=O)[C@@H](NC(=O)[C@H](CO)NC(=O)[C@H](Cc1ccncc1)NC(=O)[C@H](CC(=O)O)NC(=O)[C@H](CO)NC(=O)[C@@H](NC(=O)[C@](C)(Cc1ccccc1F)NC(=O)[C@@H](NC(=O)CNC(=O)[C@H](CCC(N)=O)NC(=O)C(C)(C)NC(=O)[C@@H](N)Cc1ccc(O)cc1)[C@@H](C)O)[C@@H](C)O)[C@@H](C)CC)C(=O)N[C@H](CCC(=O)O)C(=O)N[C@@](C)(Cc1ccc(O)cc1)C(=O)N[C@@H](CC(C)C)C(=O)N[C@@H](CC(C)C)C(=O)N[C@@H](CCC(=O)O)C(=O)NCC(=O)NCC(=O)N1CCC[C@H]1C(=O)N[C@@H](CO)C(=O)N[C@@H](CO)C(=O)NCC(=O)N[C@@H](CCC(=O)O)C(=O)N1CCC[C@H]1C(=O)N1CCC[C@H]1C(=O)N1CCC[C@H]1C(=O)N[C@@H](CO)C(N)=O [Example 3] | 111 ± 5 | 107 ± 2 | 97 ± 9 | 99 ± 4 | 105 ± 5 | 103 ± 2 | 32.8 | 0.102 | 1070 | 12 | 13 | – | – | – | – | – | – | – | –
semaglutide | – | – | – | – | – | – | – | – | – | – | – | 76.4 and 76.6 and 80.9 | −9.23 ± 0.58* g | −73.33 ± 4.17* mg/dL | -18.33 ± 2.81 | -4.15 ± 2.23 | 16.00 ± 0.38 | −15.14 ± 1.93* % | −21.98 ± 2.58* %
